Data as given in article PMC10465243, “Identification of sucrose synthase from Micractinium conductrix to favor biocatalytic glycosylation” (Frontiers in Microbiology, 2023).

Target: T1, UGT76G1 (Stevia rebaudiana, UniProt Q6VAB4, S195Q)
T1 construct: codon-optimised gene in pRSFDuet-1 (NdeI/XhoI), co-expressed with a SuSy in E. coli BL21(DE3), crude extract
Assay: HPLC of RebD and RebM, one-pot coupled with McSuSy S31D, E. coli crude extract
Assay type: biochemical
Details: sucrose, UDP recycling, potassium phosphate pH 7.2, 40°C; RebD formed in situ as intermediate

T1 sequence (Q6VAB4 whole entry S195Q): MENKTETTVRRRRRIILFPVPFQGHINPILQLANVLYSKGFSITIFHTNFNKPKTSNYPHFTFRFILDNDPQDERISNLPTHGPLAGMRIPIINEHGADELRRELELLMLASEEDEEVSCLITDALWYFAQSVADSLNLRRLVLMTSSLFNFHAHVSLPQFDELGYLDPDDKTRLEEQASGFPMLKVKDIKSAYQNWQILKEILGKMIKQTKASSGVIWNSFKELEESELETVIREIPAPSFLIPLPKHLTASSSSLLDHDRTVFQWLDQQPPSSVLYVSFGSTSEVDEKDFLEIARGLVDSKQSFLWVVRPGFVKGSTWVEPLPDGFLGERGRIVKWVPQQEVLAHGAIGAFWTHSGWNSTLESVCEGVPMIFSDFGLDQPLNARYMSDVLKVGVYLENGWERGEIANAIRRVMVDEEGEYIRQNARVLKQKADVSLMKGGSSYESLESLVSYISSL

## C=C1C[C@@]23CC[C@H]4[C@@](C)(CCC[C@@]4(C)C(=O)O[C@@H]4O[C@H](CO)[C@@H](O)[C@H](O)[C@H]4O[C@@H]4O[C@H](CO)[C@@H](O)[C@H](O)[C@H]4O)[C@@H]2CC[C@]1(O[C@@H]1O[C@H](CO)[C@@H](O)[C@H](O[C@@H]2O[C@H](CO)[C@@H](O)[C@H](O)[C@H]2O)[C@H]1O[C@@H]1O[C@H](CO)[C@@H](O)[C@H](O)[C@H]1O)C3 [RebD]
  HPLC of RebD and RebM, one-pot coupled with McSuSy S31D, E. coli crude extract: second glycosylation reaction that RebD was converted into RebM by UGT76G1_S195Q
